From patent publication US20060069132A1, “Azolecarboxamide herbicides” (priority 2004, published 2006)

Tests used:
morningglory = experiment: Test B pre-/postemergence herbicide test; type: in vivo, Ipomoea coccinea; conditions: for Morningglory plant response rating: postemergence
In short: (§1)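 Visual rating, 0 (no effect) to 100 (complete control), versus untreated controls after 13–15 d in greenhouse. Pre- and postemergence applications (postemergence plants 2–18 cm, 1–4 leaves); flooded paddy arm at 2-leaf stage. Compounds in non-phytotoxic solvent plus surfactant.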

rice [1] = experiment: Test C flooded paddy test; type: in vivo, Oryza sativa
In short: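 Postemergence sprays applied to plants 2 to 18 cm tall (1- to 4-leaf stage); paddy species grown to 2-leaf stage under flooding. After 12 to 14 days in greenhouse, visual rating versus untreated controls on 0–100 scale (0 no effect, 100 complete control).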

[2] = tested on: smallflower umbrella sedge; experiment: Test C flooded paddy test; type: in vivo, Cyperus difformis
velvetleaf = experiment: Test B pre-/postemergence herbicide test; type: in vivo, Abutilon theophrasti; conditions: for Velvetleaf plant response rating: postemergence
In short: (§2)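 Seeds were planted and treated preemergence with compounds formulated in a non-phytotoxic solvent mixture containing surfactant, while plants at the 1- to 4-leaf stage (2 to 18 cm) received postemergence sprays. Flooded paddy plants were grown to the 2-leaf stage. After 13 to 15 days in a greenhouse, injury was visually rated 0–100 against untreated controls.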

cocklebur = experiment: Test B pre-/postemergence herbicide test; type: in vivo, Xanthium strumarium; conditions: for Cocklebur plant response rating: postemergence, scale 0 (no effect) to 100 (complete control)
In short: as §1

rice [3] = experiment: Test B pre-/postemergence herbicide test; type: in vivo, Oryza sativa; conditions: 0 = no effect, 100 = complete control, preemergence
In short: as §2

barnyardgrass [4] = experiment: Test C flooded paddy test; type: in vivo, Echinochloa crus-galli
In short: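 After a postemergence application at 1 to 4 leaves (plants 2–18 cm high), or at 2 leaves for barnyardgrass in flooded paddy, plants stayed in the greenhouse for 12 to 14 days. Damage was then judged visually relative to control plants, with 100 indicating complete control.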

blackgrass = experiment: Test B postemergence herbicide test; type: in vivo, Alopecurus myosuroides; conditions: postemergence, visual rating, scale 0 (no effect) to 100 (complete control)
In short: (§3)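 Visual ratings, 0 (no effect) to 100 (complete control), made versus controls after 13–15 d greenhouse. Paddy plants treated at 2-leaf stage; postemergence plants at 1- to 4-leaf stage, 2–18 cm tall.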

large crabgrass = experiment: Test B pre-/postemergence herbicide test; type: in vivo, Digitaria sanguinalis; conditions: for Crabgrass, Large plant response rating: postemergence
In short: as §2

corn = experiment: Test B pre-/postemergence herbicide test; type: in vivo, Zea mays; conditions: for Corn plant response rating: postemergence
In short: as §2

barnyardgrass [5] = experiment: Test B pre-/postemergence herbicide test; type: in vivo, Echinochloa crus-galli; conditions: for Barnyardgrass plant response rating: postemergence, scale 0 (no effect) to 100 (complete control)
In short: as §1

barnyardgrass [6] = experiment: Test B flooded paddy test; type: in vivo, Echinochloa crus-galli; conditions: 1000 g ai/ha, scale 0 to 100 (0 no effect, 100 complete control)
In short: as §3

rice [7] = experiment: Test B flooded paddy test; type: in vivo, Oryza sativa; conditions: 1000 g ai/ha, scale 0 to 100 (0 no effect, 100 complete control)
In short: as §3

giant foxtail = experiment: Test B pre-/postemergence herbicide test; type: in vivo, Setaria faberi; conditions: for Foxtail, Giant plant response rating: postemergence
In short: as §2

ducksalad [8] = experiment: Test C flooded paddy test; type: in vivo, Heteranthera limosa
pigweed = experiment: Test B pre-/postemergence herbicide test; type: in vivo, Amaranthus retroflexus; conditions: for Pigweed plant response rating: postemergence
In short: as §2

Surinam grass = experiment: Test B pre-/postemergence herbicide test; type: in vivo, Urochloa decumbens; conditions: for Surinam Grass plant response rating: postemergence
In short: as §2

wheat = experiment: Test B postemergence herbicide test; type: in vivo, Triticum aestivum; set-up: key to Wheat plant response rating: 0 = no effect, 100 = complete control; conditions: postemergence
In short: (§4)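 Treated at 2-leaf (paddy) or 1–4-leaf, 2–18 cm (postemergence); greenhouse 13–15 d; visual score vs control, 0 none to 100 complete control; dash = not tested.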

lambsquarters = experiment: Test B pre-/postemergence herbicide test; type: in vivo, Chenopodium album; conditions: for Lambsquarters plant response rating: postemergence
In short: as §2

wild oat = experiment: Test B postemergence herbicide test; type: in vivo, Avena fatua; conditions: postemergence
In short: as §4

[9] = tested on: small flower umbrella sedge; experiment: Test B flooded paddy test; type: in vivo, Cyperus difformis; conditions: 1000 g ai/ha, scale 0 to 100 (0 no effect, 100 complete control)
In short: as §3

ducksalad [10] = experiment: Test B flooded paddy test; type: in vivo, Heteranthera limosa; conditions: 1000 g ai/ha, scale 0 to 100 (0 no effect, 100 complete control)
In short: as §3

[11] = 125 g ai/ha, 0 = no effect, 100 = complete control, preemergence
[12] = 500 g ai/ha, visual rating, 0 = no effect, 100 = complete control, preemergence
[13] = 125 g ai/ha, visual rating, scale 0 (no effect) to 100 (complete control)
[14] = 500 g ai/ha, scale 0 to 100, 0 is no effect, 100 is complete control
[15] = 125 g ai/ha, scale 0 to 100 (0 no effect, 100 complete control)
[16] = 250 g ai/ha, scale of 0 to 100, 0 is no effect, 100 is complete control
[17] = 500 g ai/ha, visual rating after 12 to 14 days, scale 0 to 100 (0 no effect, 100 complete control)

CCn1nc(C(C)(C)C)cc1C(=O)Nc1cccc(C(=O)N2CCOCC2)n1 [Compound 247]
Morningglory plant response rating (0 to 100 scale) (morningglory; [11]): 0
Plant response rating, Morningglory (morningglory; [12]): 10
Morningglory plant response rating (morningglory; [13]): 20
Morningglory plant response rating (morningglory; [14]): 30
Rice plant response rating (rice [1]; 62 g ai/ha, scale 0 to 100): 0
Rice plant response rating (rice [1]; [15]): 0
Rice plant response rating (rice [1]; [16]): 20
Plant response rating, Rice (rice [1]; [17]): 75
Sedge, Umbrella plant response rating ([2]; 62 g ai/ha, scale 0 to 100): 0
Sedge, Umbrella plant response rating [2, 15]: 0
Sedge, Umbrella plant response rating [2, 16]: 15
Plant response rating, Sedge, Umbrella [2, 17]: 75
Velvetleaf plant response rating (0 to 100 scale) (velvetleaf; [11]): 20
Plant response rating, Velvetleaf (velvetleaf; [12]): 100
Velvetleaf plant response rating (velvetleaf; [13]): 30
Velvetleaf plant response rating (velvetleaf; [14]): 70
Cocklebur plant response rating (0 to 100 scale) (cocklebur; [11]): 0
Plant response rating, Cocklebur (cocklebur; [12]): 0
Cocklebur plant response rating (cocklebur; 125 g ai/ha, visual rating): 0
Cocklebur plant response rating (cocklebur; 500 g ai/ha, visual rating): 30
Rice plant response rating (0 to 100 scale) (rice [3]; 125 g ai/ha): 10
Plant response rating, Rice (rice [3]; 500 g ai/ha, visual rating): 40
Barnyardgrass plant response rating (barnyardgrass [4]; 62 g ai/ha, scale 0 to 100 (0 no effect, 100 complete control)): 0
Barnyardgrass plant response rating (barnyardgrass [4]; [15]): 0
Barnyardgrass plant response rating (barnyardgrass [4]; [16]): 0
Plant response rating, Barnyardgrass (barnyardgrass [4]; [17]): 0
Blackgrass plant response rating (blackgrass; 125 g ai/ha): 0
Blackgrass plant response rating (blackgrass; 500 g ai/ha): 0
Crabgrass, Large plant response rating (0 to 100 scale) (large crabgrass; [11]): 20
Plant response rating, Crabgrass, Large (large crabgrass; [12]): 80
Crabgrass, Large plant response rating (large crabgrass; [13]): 10
Crabgrass, Large plant response rating (large crabgrass; [14]): 10
Corn plant response rating (0 to 100 scale) (corn; [11]): 0
Plant response rating, Corn (corn; [12]): 30
Corn plant response rating (corn; [13]): 0
Corn plant response rating (corn; [14]): 20
Barnyardgrass plant response rating (0 to 100 scale) (barnyardgrass [5]; [11]): 30
Plant response rating, Barnyardgrass (barnyardgrass [5]; [12]): 80
Barnyardgrass plant response rating (barnyardgrass [5]; 125 g ai/ha, visual rating): 0
Barnyardgrass plant response rating (barnyardgrass [5]; 500 g ai/ha, visual rating): 10
Barnyardgrass plant response rating (barnyardgrass [6]): 70
Rice plant response rating (rice [7]): 80
Foxtail, Giant plant response rating (0 to 100 scale) (giant foxtail; [11]): 10
Plant response rating, Foxtail, Giant (giant foxtail; [12]): 70
Foxtail, Giant plant response rating (giant foxtail; [13]): 10
Foxtail, Giant plant response rating (giant foxtail; [14]): 20
Ducksalad plant response rating (ducksalad [8]; 62 g ai/ha, scale 0 to 100): 0
Ducksalad plant response rating (ducksalad [8]; [15]): 0
Ducksalad plant response rating (ducksalad [8]; [16]): 0
Plant response rating, Ducksalad (ducksalad [8]; [17]): 80
Pigweed plant response rating (0 to 100 scale) (pigweed; [11]): 100
Plant response rating, Pigweed (pigweed; [12]): 100
Pigweed plant response rating (pigweed; [13]): 60
Pigweed plant response rating (pigweed; [14]): 60
Surinam Grass plant response rating (0 to 100 scale) (Surinam grass; [11]): 20
Plant response rating, Surinam Grass (Surinam grass; [12]): 50
Surinam Grass plant response rating (Surinam grass; [13]): 10
Surinam Grass plant response rating (Surinam grass; [14]): 20
Wheat plant response rating (wheat; [13]): 0
Wheat plant response rating (wheat; [14]): 0
Lambsquarters plant response rating (0 to 100 scale) (lambsquarters; [11]): 80
Plant response rating, Lambsquarters (lambsquarters; [12]): 100
Lambsquarters plant response rating (lambsquarters; [13]): 60
Lambsquarters plant response rating (lambsquarters; [14]): 70
Oat, Wild plant response rating (wild oat; [13]): 0
Oat, Wild plant response rating (wild oat; [14]): 10
Sedge, Umbrella plant response rating [9]: 70
Ducksalad plant response rating (ducksalad [10]): 80
